Experimental data taken from patent publication US5374623A, “Cysteine protease inhibitors effective for in vivo use” (Prototek, Inc., priority 1992, dated 1994).
pIC50: −log10 of the molar value.

Key:
[1] = biological target: T1, Cathepsin B purified from human liver (Homo sapiens, UniProt P07858); experiment: Cathepsin B inhibition, potency relative to Z-Phe-Ala-CH2 F; assay type: biochemical; settings: substrate Z-Leu-Arg-Arg-AFC, pH 6.2, inhibitor added 2 min before substrate
T1 construct: Cathepsin B. purified from human liver; purchased Enzyme Systems Products (Dublin, Calif.); host or cells: human liver (tissue-purified)
Procedure: Cathepsin B. purified from human liver, was obtained from Enzyme Systems Products (Dublin, Calif.). The activity of the enzyme used in this Example was 50 mU per ml at 30° C. in 50 mm sodium phosphate buffer, pH 6.2, 5 mm DTT, 2 mm EDTA, with Z-Leu-Arg-Arg-7-amino-4-trifluoromethyl courmarin (Z-Leu-Arg-Arg-AFC) as substrate.
Cathepsin B assays were done under the following conditions: Five μl of enzyme stock solution was preincubated with 435 μl of phosphate buffer for 30 minutes to activate the enzyme. Nine μl of 20 mm stock substrate solution (in dimethylformamide) were added and mixed with the activated enzyme. Activity was followed by the release of free AFC as monitored by a Perkin-Elmer LS-5B spectrofluorometer (excitation=400 nm, emission=505 nm).
The inhibitors described herein were prepared in 20 mm stock solutions in DMF. Five μl aliquots of each inhibitor were added to the enzyme 2 min before the substrate was added to the mix. Potency was determined relative to the activity of a standard cathepsin B inhibitor, Z-Phe-Ala-CH2 F (relative potency of 1.0).

[2] = tested on: adjuvant-induced arthritis; experiment: Adjuvant-induced arthritis in rats, compound in ground diet (Example 15); assay type: in vivo; settings: day 0 to day 32
Procedure: Treatment of Rheumatoid Arthritis with Mu-Tyr(OMe)-HPhe-O-Ph. Rats were injected with adjuvant on day 0 and were treated with Mu-Tyr(OMe)-HPhe-O-Ph in ground diet from the time of adjuvant injection until sacrifice at day 32. Over the course of the disease, animals were evaluated in terms of a mean clinical score, a derived series of clinically observed parameters normalized to facilitate graphical presentation. Mean paw volumes were also measured using normalized units throughout the course of the disease. At the end of the study, the animal groups were sacrificed and evaluated by X-ray analysis.

[3] = tested on: 45Ca2+-labelled bones (calvaria) of neonatal mice; experiment: Parathyroid hormone-stimulated 45Ca2+ release from cultured mouse calvaria; assay type: cell-based; settings: for inhibition of the rate of 45Ca2+-release: 1 μm inhibitor; for inhibition of the rate of 45Ca2+-release / additional inhibition of the rate of 45Ca2+-release: 24 hour period, PTH-stimulated; for additional inhibition of the rate of 45Ca2+-release: 100 μm inhibitor
Procedure: (§1) Treatment of Osteo Arthritis with Mu-Phe-HPhe-O-Ph. ^45 Ca^2+ -labelled bones (calvaria) of neonatal mice were maintained in culture. The effect of the test compound on the rate of parathyroid hormone-stimulated ^45 Ca^2+ release was measured over a 24 hour period. An inhibitor of bone resorption (at maximal concentrations) would be expected to inhibit this rate by approximately 70%. The nature of the residual, uninhibitable ^45 Ca^2+ -release is not known but could represent chemical exchange of ^45 Ca^2+ with the medium. Mu-Phe-HPhe-O-Ph was dissolved in dimethylsulphoxide which was present in the incubation at concentrations <0.1%.
as §1, with “Mu-Leu-HPhe-O-Ph.” for “Mu-Phe-HPhe-O-Ph.”, “Mu-Leu-HPhe-O-Ph” for “Mu-Phe-HPhe-O-Ph”
as §1, with “Mu-Tyr(OMe)-HPhe-O-Ph.” for “Mu-Phe-HPhe-O-Ph.”, “Mu-Tyr(OMe)-HPhe-O-Ph” for “Mu-Phe-HPhe-O-Ph”
as §1, with “Z-Phe-Ala-O-Ph.” for “Mu-Phe-HPhe-O-Ph.”, “Z-Phe-Ala-O-Ph” for “Mu-Phe-HPhe-O-Ph”
as §1, with “Mu-Tyr(OMe)-HPhe-O-Ph.” for “Mu-Phe-HPhe-O-Ph.”, “labelled” for “-labelled”, “Mu-Tyr(OMe)-HPhe-O-Ph” for “Mu-Phe-HPhe-O-Ph”

[4] = tested on: Soluble extracts of P. vinckei; experiment: Proteolytic activity of P. vinckei soluble extracts, substrate Z-Phe-Arg-AFC; assay type: biochemical; settings: read-out: IC50, proteolytic activity of P. vinckei extract
Procedure: (§2) Treatment of Malaria with Mu-Phe-HPhe-O-Ph. Soluble extracts of P. falciparum and P. vinckei were prepared and proteolytic activity was assayed with fluorogenic peptide substrate Z-Phe-Arg-AFC. The activity of control samples was compared with activities in the presence of multiple concentrations of Mu-Phe-HPhe-O-Ph. The concentrations at which activity was inhibited by 50% (IC50) was calculated.
as §2, with “with Mu-Leu-HPhe-O-Ph.” for “with Mu-Phe-HPhe-O-Ph.”, “of Mu-Leu-HPhe-O-Phe.” for “of Mu-Phe-HPhe-O-Ph.”, “The concentration” for “The concentrations”, “by 50%.” for “by 50%”
as §2, with “with Mu-Phe-Arg(NO2)-O-Ph.” for “with Mu-Phe-HPhe-O-Ph.”, “of Mu-Phe-Arg(NO2)-O-Ph.” for “of Mu-Phe-HPhe-O-Ph.”, “The concentration” for “The concentrations”
as §2, with “with Mu-Tyr(OCH3)2 -HPhe-O-Ph.” for “with Mu-Phe-HPhe-O-Ph.”, “samples as” for “samples was”, “of Mu-Tyr(OCH3)2 -HPhe-O-Ph.” for “of Mu-Phe-HPhe-O-Ph.”, “The concentration” for “The concentrations”

bone resorption = experiment: In vivo bone resorption by urinary 14C-tetracycline excretion in rats
Procedure: Treatment of Osteo Arthritis with Mu-Phe-HPhe-O-Ph. The skeletons of young growing rats were radioactively labelled by injections with ^14 C-tetracycline over a 10 day period. The amount of bone resorption was then determined each day as the amount of radioactivity excreted in the urine. After 10 days of control excretion, test compounds were administered for three days subcutaneously and their effects on the daily excretion of tetracycline were determined. Tested compounds were dissolved in DMSO/PEG at a concentration of 25 mg/ml and were injected once per day subcutaneously in a volume of 2 ml/kg. Treatment of Osteo Arthritis with Mu-Leu-HPhe-O-Ph. The skeletons of young growing rats were radioactively labelled by injections with ^14 C-tetracycline over a 10 day period. The amount of bone resorption was then determined each day as the amount of radioactivity excreted in the urine. After 10 days of control excretion, test compounds were administered for three days subcutaneously and their effects on the daily excretion of tetracycline were determined. Tested compounds were dissolved in DMSO/PEG at a concentration of 25 mg/ml and were injected once per day subcutaneously in a volume of 2 ml/kg.

[5] = biological target: Soluble extracts of P. falciparum (cysteine proteinase); experiment: Proteolytic activity of P. falciparum soluble extracts, substrate Z-Phe-Arg-AFC; assay type: biochemical; settings: read-out: IC50, proteolytic activity of P. falciparum extract
Procedure: Soluble extracts of P. falciparum and P. vinckei were prepared and proteolytic activity was assayed with fluorogenic peptide substrate Z-Phe-Arg-AFC. […] The concentrations at which activity was inhibited by 50% (IC50) was calculated.
Soluble extracts of P. falciparum and P. vinckei were prepared and proteolytic activity was assayed with fluorogenic peptide substrate Z-Phe-Arg-AFC. […] The concentration at which activity was inhibited by 50%. (IC50) was calculated.
Soluble extracts of P. falciparum and P. vinckei were prepared and proteolytic activity was assayed with fluorogenic peptide substrate Z-Phe-Arg-AFC. […] The concentration at which activity was inhibited by 50% (IC50) was calculated.
The concentration at which activity was inhibited by 50% (IC50) was calculated.

COC(=O)c1ccccc1OCC(=O)C(C)(C)NC(=O)C(Cc1ccccc1)NC(=O)N1CCOCC1 (stereo not shown) [Example 9, Morpholine carbonyl phenylalanyl 2-aminoisobutyric methyl phenoxy ketone]
relative potency of cathepsin B inhibition (Z-Phe-Ala-CH2 F = 1.0) [1]: 0.2

COc1ccc(C[C@H](NC(=O)N2CCOCC2)C(=O)N[C@@H](CCc2ccccc2)C(=O)COc2ccccc2)cc1 [Mu-Tyr(OMe)-HPhe-O-Ph]
mean clinical scores vs untreated animals [2]: significantly lower
mean paw volumes vs untreated animals [2]: significantly reduced
inhibition of the rate of 45Ca2+-release [3]: 50%
additional inhibition of the rate of 45Ca2+-release [3]: 20%
pIC50 ([3]; initial phase of inhibition, read-out: IC50 for inhibition of resorption in mouse calvaria): ~7.40

CC(NC(=O)C(Cc1ccccc1)NC(=O)OCc1ccccc1)C(=O)COc1ccccc1 (stereo not drawn) [Z-Phe-Ala-O-Ph]
inhibition of the rate of 45Ca2+-release [3]: 50%
additional inhibition of the rate of 45Ca2+-release [3]: 20%

CC(C)C[C@H](NC(=O)N1CCOCC1)C(=O)N[C@@H](CCc1ccccc1)C(=O)COc1ccccc1 [Mu-Leu-HPhe-O-Ph]
pIC50 [4]: 7.82
inhibition of bone resorption in vivo as measured by tetracycline excretion (bone resorption; subcutaneous once per day for three days, 25 mg/ml in DMSO/PEG, 2 ml/kg): nearly as great as that of a maximal dose of calcitonin
time of maximum effect after dosing commenced (bone resorption; subcutaneous once per day, 25 mg/ml, 2 ml/kg): 24 h
findings at the sites of injection at end of experiment (bone resorption; subcutaneous, DMSO/PEG, three days, histology: inflammation of subcutaneous fat, tissue necrosis): lesions were visible at the sites of injection
inhibition of the rate of 45Ca2+-release [3]: 50%
additional inhibition of the rate of 45Ca2+-release [3]: 20%
pIC50 [5]: 9.38

NC(=NCCCC(NC(=O)C(Cc1ccccc1)NC(=O)N1CCOCC1)C(=O)COc1ccccc1)N[N+](=O)[O-] (stereo not shown) [Mu-Phe-Arg(NO2)-O-Ph]
pIC50 [4]: 6.96
pIC50 [5]: 8.62

t-Butyl carbamyl-L-arginyl-(2-Carboxymethyl) phenoxymethyl ketone [Example 3]
relative potency of cathepsin B inhibition (Z-Phe-Ala-CH2 F = 1.0) [1]: five

C[C@H](NC(=O)[C@H](Cc1ccccc1)NC(=O)OCc1ccccc1)C(=O)CF [Z-Phe-Ala-CH2 F, reference compound]
relative potency of cathepsin B inhibition (Z-Phe-Ala-CH2 F = 1.0) [1]: 1.0
